# Values quoted from earlier work, collected in paper PMC10216446 (Biomolecules, 2023).
# pIC50: −log10 of the molar value.
# Columns and labels:
# [1] = stated as a known limitation of TNP, no reference given
# [2] = test system: human cytochrome P450s; set-up: method as in PMID 27689003
# [3] = test system: IP6K; details: reported values; read-out: reported IC50 values for TNP
smiles,measurement,setting,value
"O=[N+]([O-])c1ccc(CNc2nc(NCc3cccc(C(F)(F)F)c3)nc3nc[nH]c23)cc1 [TNP, N2-(m-trifluorobenzyl), N6-(p-nitrobenzyl)purine]",aqueous solubility,[1],poor
same,inhibition of human cytochrome P450s,[2],potent inhibitor of human cytochrome P450s
same,pIC50,[3],6.00 to 6.60
